Test results from patent US12077503B2, “Substituted cyclic amides and their use as herbicides” (FMC CORPORATION, priority 2015, dated 2024).

How the values were obtained:
Type in all cases: in vivo
[1] = tested on: barnyardgrass (Echinochloa crus-galli); assay: Test G Pre-Emergence Protocol; conditions: Echinochloa crus-galli, pre-emergence, 312 h, evaluated after 13 days
Procedure, shortened: (§1)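 Test compound in 0.5% Tween 20 acetone/water (50:50) was applied at three rates (15.625, 62.5, 250 g/ha) to soil sown one day earlier. After 13 days plants were scored for injury, where 0 means unaffected and 100 means completely damaged.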

corn (Zea mays) [2] = assay: Test G Pre-Emergence Protocol; conditions: Zea mays, pre-emergence, 312 h, evaluated after 13 days
Procedure, shortened: as §1

[3] = tested on: giant foxtail (Setaria faberi); assay: Test G Pre-Emergence Protocol; conditions: Setaria faberi, pre-emergence, 312 h, evaluated after 13 days
Procedure, shortened: as §1

[4] = tested on: ivy-leaved morning glory (Ipomoea hederacea); assay: Test G Pre-Emergence Protocol; conditions: Ipomoea, pre-emergence, 312 h, evaluated after 13 days
Procedure, shortened: as §1

[5] = tested on: redroot pigweed (Amaranthus retroflexus); assay: Test G Pre-Emergence Protocol; conditions: Amaranthus retroflexus, pre-emergence, 312 h, evaluated after 13 days
Procedure, shortened: as §1

[6] = tested on: velvetleaf (Abutilon theophrasti); assay: Test G Pre-Emergence Protocol; conditions: Abutilon theophrasti, pre-emergence, 312 h, evaluated after 13 days
Procedure, shortened: as §1

[7] = tested on: barnyardgrass (Echinochloa crus-galli); assay: Test G Post-Emergence Protocol; conditions: Echinochloa crus-galli, post-emergence, 312 h, read-out: Barnyardgrass damage rating
Procedure, shortened: (§2)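 Pot-grown seedlings, 8 days old, raised in a glasshouse at 24/16 °C day/night with 14 h light and 65% humidity, were sprayed post-emergence with test compound in acetone/water (50:50) plus 0.5% Tween 20 at 15.625, 62.5 or 250 g/ha. Damage was scored visually 13 days later on a 0–100 scale (100 = total damage).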

corn (Zea mays) [8] = assay: Test G Post-Emergence Protocol; conditions: Zea mays, post-emergence, 312 h, read-out: Corn damage rating
Procedure, shortened: as §2

[9] = tested on: giant foxtail (Setaria faberi); assay: Test G Post-Emergence Protocol; conditions: Setaria faberi, post-emergence, 312 h, read-out: Foxtail, Giant damage rating
Procedure, shortened: as §2

[10] = tested on: ivy-leaved morning glory (Ipomoea hederacea); assay: Test G Post-Emergence Protocol; conditions: Ipomoea, post-emergence, 312 h, read-out: Morningglory, Ivy-leaved damage rating
Procedure, shortened: as §2

[11] = tested on: redroot pigweed (Amaranthus retroflexus); assay: Test G Post-Emergence Protocol; conditions: Amaranthus retroflexus, post-emergence, 312 h, read-out: Pigweed, Redroot damage rating
Procedure, shortened: as §2

[12] = tested on: velvetleaf (Abutilon theophrasti); assay: Test G Post-Emergence Protocol; conditions: Abutilon theophrasti, post-emergence, 312 h, read-out: Velvetleaf damage rating
Procedure, shortened: as §2

[13] = 15.625 g ai/ha, evaluated after 13 days (100=total damage to plant; 0=no damage to plant)
[14] = 62.5 g ai/ha, evaluated after 13 days, 100=total damage to plant, 0=no damage to plant
[15] = 250 g ai/ha, evaluated after 13 days, 100=total damage to plant, 0=no damage to plant

CC(O)c1ccccc1NC(=O)[C@H]1C(=O)N(C)C[C@@H]1c1cccc(C(F)(F)F)c1 (mixture of isomers) [Compound 1783]
pest or weed control at 15.625 g/ha ([1]; 15.625 g ai/ha, read-out: Barnyardgrass damage rating (100=total damage to plant; 0=no damage to plant)): 50%
pest or weed control at 62.5 g/ha ([1]; 62.5 g ai/ha, 100=total damage to plant, 0=no damage to plant, read-out: Barnyardgrass damage rating): 90%
pest or weed control at 250 g/ha ([1]; 250 g ai/ha, read-out: Barnyardgrass damage rating (100=total damage to plant; 0=no damage to plant)): 90%
plant injury at 15.625 g/ha (corn (Zea mays) [2]; 15.625 g ai/ha, read-out: Corn damage rating (100=total damage to plant; 0=no damage to plant)): 50%
plant injury at 62.5 g/ha (corn (Zea mays) [2]; 62.5 g ai/ha, 100=total damage to plant, 0=no damage to plant, read-out: Corn damage rating): 80%
plant injury at 250 g/ha (corn (Zea mays) [2]; 250 g ai/ha, read-out: Corn damage rating (100=total damage to plant; 0=no damage to plant)): 90%
pest or weed control at 15.625 g/ha ([3]; 15.625 g ai/ha, read-out: Foxtail, Giant damage rating (100=total damage to plant; 0=no damage to plant)): 80%
pest or weed control at 62.5 g/ha ([3]; 62.5 g ai/ha, 100=total damage to plant, 0=no damage to plant, read-out: Foxtail, Giant damage rating): 90%
pest or weed control at 250 g/ha ([3]; 250 g ai/ha, read-out: Foxtail, Giant damage rating (100=total damage to plant; 0=no damage to plant)): 90%
pest or weed control at 15.625 g/ha ([4]; 15.625 g ai/ha, read-out: Morningglory, Ivy-leaved damage rating (100=total damage to plant; 0=no damage to plant)): 10%
pest or weed control at 62.5 g/ha ([4]; 62.5 g ai/ha, 100=total damage to plant, 0=no damage to plant, read-out: Morningglory, Ivy-leaved damage rating): 10%
pest or weed control at 250 g/ha ([4]; 250 g ai/ha, read-out: Morningglory, Ivy-leaved damage rating (100=total damage to plant; 0=no damage to plant)): 40%
pest or weed control at 15.625 g/ha ([5]; 15.625 g ai/ha, read-out: Pigweed, Redroot damage rating (100=total damage to plant; 0=no damage to plant)): 0%
pest or weed control at 62.5 g/ha ([5]; 62.5 g ai/ha, 100=total damage to plant, 0=no damage to plant, read-out: Pigweed, Redroot damage rating): 0%
pest or weed control at 250 g/ha ([5]; 250 g ai/ha, read-out: Pigweed, Redroot damage rating (100=total damage to plant; 0=no damage to plant)): 40%
pest or weed control at 15.625 g/ha ([6]; 15.625 g ai/ha, read-out: Velvetleaf damage rating (100=total damage to plant; 0=no damage to plant)): 0%
pest or weed control at 62.5 g/ha ([6]; 62.5 g ai/ha, 100=total damage to plant, 0=no damage to plant, read-out: Velvetleaf damage rating): 10%
pest or weed control at 250 g/ha ([6]; 250 g ai/ha, read-out: Velvetleaf damage rating (100=total damage to plant; 0=no damage to plant)): 70%
pest or weed control at 15.625 g/ha [7, 13]: 70%
pest or weed control at 62.5 g/ha [7, 14]: 80%
pest or weed control at 250 g/ha [7, 15]: 80%
plant injury at 15.625 g/ha (corn (Zea mays) [8]; [13]): 70%
plant injury at 62.5 g/ha (corn (Zea mays) [8]; [14]): 80%
plant injury at 250 g/ha (corn (Zea mays) [8]; [15]): 80%
pest or weed control at 15.625 g/ha [9, 13]: 80%
pest or weed control at 62.5 g/ha [9, 14]: 80%
pest or weed control at 250 g/ha [9, 15]: 80%
pest or weed control at 15.625 g/ha [10, 13]: 10%
pest or weed control at 62.5 g/ha [10, 14]: 60%
pest or weed control at 250 g/ha [10, 15]: 70%
pest or weed control at 15.625 g/ha [11, 13]: 0%
pest or weed control at 62.5 g/ha [11, 14]: 0%
pest or weed control at 250 g/ha [11, 15]: 20%
pest or weed control at 15.625 g/ha [12, 13]: 0%
pest or weed control at 62.5 g/ha [12, 14]: 20%
pest or weed control at 250 g/ha [12, 15]: 50%
